The values that follow come from patent publication US11634390B2, “Agricultural chemicals” (GLOBACHEM NV, priority 2016, dated 2023).

Holding throughout (type): in vivo
The test system of one assay is Stellaria media. The experiment in a line: Herbicidal screen, post-emergence spray of seedlings in pots: Chickweed. Details: key to percentage increase in necrosis relative to the control: no detected effect at this concentration; a percentage increase in necrosis relative to the control of 0.1-50; b: a percentage increase in necrosis of 50-80; a percentage increase in necrosis of 80-100. The following applies: assessed 10 days after treatment; for pest or weed control at 12.5 g/ha / pest or weed control at 25 g/ha / pest or weed control at 50 g/ha / pest or weed control at 100 g/ha: Stellaria media, post-emergence, 240 h, read-out: percentage increase in necrosis relative to the control. The procedure: (§1) Compounds were screened at four concentrations (100, 50, 25 and 12.5 g/ha) against four weed species (Stellaria media—Chickweed; Abutilon theophrasti—velvetleaf; Amaranthus retroflexus—common amaranthus; Echinochloa crus-galli—Barnyard grass) and maize as a crop species. Seed were sown in 12.5 cm diameter pots (20 per pot for the weed species and 5 for maize). Seedlings were sprayed with 2 ml of compound two weeks after sowing, with 2 ml water used as the control. Each treatment was replicated three times. Plants were maintained at 20° C. and assessed 10 days after treatment. The assessment was based on the % plant in each pot showing growth. The data is presented in Table 1 in which d represents no detected effect at this concentration; c represents a percentage increase in necrosis relative to the control of 0.1-50; b represents a percentage increase in necrosis of 50-80; and a represents a percentage increase in necrosis of 80-100.

In another assay the test system is maize. Put plainly: Herbicidal screen, post-emergence spray of seedlings in pots: crop species. The conditions noted are these: assessed 10 days after treatment; for plant injury at 12.5 g/ha / plant injury at 25 g/ha / plant injury at 50 g/ha / plant injury at 100 g/ha: Zea mays, post-emergence, 240 h, read-out: percentage increase in necrosis relative to the control. On the set-up: key to percentage increase in necrosis relative to the control: no detected effect at this concentration; a percentage increase in necrosis relative to the control of 0.1-50; b: a percentage increase in necrosis of 50-80; a percentage increase in necrosis of 80-100. The procedure: as §1

For another assay, the system named is Abutilon theophrasti. Put plainly: Herbicidal screen, post-emergence spray of seedlings in pots: velvetleaf. Details: key to percentage increase in necrosis relative to the control: no detected effect at this concentration; a percentage increase in necrosis relative to the control of 0.1-50; b: a percentage increase in necrosis of 50-80; a percentage increase in necrosis of 80-100. The following applies: assessed 10 days after treatment; for pest or weed control at 12.5 g/ha / pest or weed control at 25 g/ha / pest or weed control at 50 g/ha / pest or weed control at 100 g/ha: Abutilon theophrasti, post-emergence, 240 h, read-out: percentage increase in necrosis relative to the control. The procedure:
as §1

In a further assay the test system is Echinochloa crus-galli. Put plainly: Herbicidal screen, post-emergence spray of seedlings in pots: Barnyard grass. On the set-up: key to percentage increase in necrosis relative to the control: no detected effect at this concentration; a percentage increase in necrosis relative to the control of 0.1-50; b: a percentage increase in necrosis of 50-80; a percentage increase in necrosis of 80-100. The following applies: assessed 10 days after treatment; for pest or weed control at 12.5 g/ha / pest or weed control at 25 g/ha / pest or weed control at 50 g/ha / pest or weed control at 100 g/ha: Echinochloa crus-galli, post-emergence, 240 h, read-out: percentage increase in necrosis relative to the control. The procedure:
as §1

Another assay has as its system four weed species. Put plainly: Herbicidal screen, summary across the four weed species. The following applies: summary in words, 12.5-100 g/ha. The procedure:
as §1

The test system of the next assay is Amaranthus retroflexus. The experiment in a line: Herbicidal screen, post-emergence spray of seedlings in pots: common amaranthus. Details: key to percentage increase in necrosis relative to the control: no detected effect at this concentration; a percentage increase in necrosis relative to the control of 0.1-50; b: a percentage increase in necrosis of 50-80; a percentage increase in necrosis of 80-100. The conditions noted are these: assessed 10 days after treatment; for pest or weed control at 12.5 g/ha / pest or weed control at 25 g/ha / pest or weed control at 50 g/ha / pest or weed control at 100 g/ha: Amaranthus retroflexus, post-emergence, 240 h, read-out: percentage increase in necrosis relative to the control. The procedure:
as §1

As to `Cl.Cn1c(C(F)(F)F)cc(=O)n(-c2cc(C(=O)NS(=O)(=O)C3CCNCC3)c(Cl)cc2F)c1=O` [Example 2, 2-Chloro-4-fluoro-5-(3-methyl-2,6-dioxo-4-(trifluoromethyl)-3,6-dihydropyrimidin-1(2H)-yl)-N-(piperidin-4-ylsulfonyl)benzamide hydrochloride], the pest or weed control at 12.5 g/ha in the assay with Stellaria media (12.5 g/ha) is 50 to 80%; in the assay with Abutilon theophrasti (12.5 g/ha) it was 50 to 80%; in the assay on Echinochloa crus-galli (12.5 g/ha) it was 0.1 to 50%; with Amaranthus retroflexus (12.5 g/ha) it was 80 to 100%. The pest or weed control at 25 g/ha was in the range of 50 to 80% in the assay on Stellaria media (25 g/ha), 50 to 80% in the assay on Abutilon theophrasti, 50 to 80% with Echinochloa crus-galli (25 g/ha) and 80 to 100% with Amaranthus retroflexus (25 g/ha). In addition, the pest or weed control at 50 g/ha lay in the range of 50 to 80% in the assay with Stellaria media (50 g/ha), 50 to 80% in the assay on Abutilon theophrasti, 50 to 80% with Echinochloa crus-galli and 80 to 100% in the assay on Amaranthus retroflexus. The pest or weed control at 100 g/ha with Stellaria media, in the assay on Abutilon theophrasti, with Echinochloa crus-galli and with Amaranthus retroflexus was 80 to 100% in each case. Further, in the assay on maize (12.5 g/ha), the plant injury at 12.5 g/ha was 0.1 to 50%. In addition, the plant injury at 25 g/ha in the assay with maize (25 g/ha) lay within 0.1 to 50%. Moreover, the plant injury at 50 g/ha in the assay on maize was 50 to 80%. In addition, the plant injury at 100 g/ha with maize lay within 50 to 80%. In addition, the “herbicidal activity against the weed species” value in the assay on four weed species is recorded as “good activity across several of the weed species”.
Turning to `Cn1c(C(F)(F)F)cc(=O)n(-c2cc(C(=O)NS(=O)(=O)C3(C)CC3)c(Cl)cc2F)c1=O` [Example 7, 2-Chloro-4-fluoro-5-(3-methyl-2,6-dioxo-4-(trifluoromethyl)-3,6-dihydropyrimidin-1(2H)-yl)-N-((1-methylcyclopropyl)sulfonyl)benzamide], the pest or weed control at 12.5 g/ha lay within 0.1 to 50% in the assay on Stellaria media (12.5 g/ha), 0.1 to 50% in the assay on Abutilon theophrasti (12.5 g/ha), 0.1 to 50% in the assay with Echinochloa crus-galli (12.5 g/ha) and 80 to 100% in the assay on Amaranthus retroflexus (12.5 g/ha). Moreover, the pest or weed control at 25 g/ha with Stellaria media (25 g/ha) is 50 to 80%; in the assay on Abutilon theophrasti, 80 to 100%; in the assay on Echinochloa crus-galli (25 g/ha), 0.1 to 50%; in the assay on Amaranthus retroflexus (25 g/ha), 80 to 100%. In addition, the pest or weed control at 50 g/ha lay in the range of 50 to 80% with Stellaria media (50 g/ha), 80 to 100% with Abutilon theophrasti, 50 to 80% in the assay on Echinochloa crus-galli and 80 to 100% with Amaranthus retroflexus. The pest or weed control at 100 g/ha in the assay with Stellaria media, in the assay with Abutilon theophrasti, in the assay on Echinochloa crus-galli and in the assay with Amaranthus retroflexus was 80 to 100% in each case. Moreover, the plant injury at 12.5 g/ha in the assay on maize (12.5 g/ha) was 0.1 to 50%. Also, the plant injury at 25 g/ha in the assay with maize (25 g/ha) lay within 0.1 to 50%. In addition, the plant injury at 50 g/ha with maize lay within 0.1 to 50%. Moreover, the plant injury at 100 g/ha in the assay with maize lay in the range of 50 to 80%. In addition, the “herbicidal activity against the weed species” value with four weed species is “good activity across several of the weed species”.
Take `Cn1c(C(F)(F)F)cc(=O)n(-c2cc(C(=O)NS(=O)(=O)C3CCS(=O)(=O)C3)c(Cl)cc2F)c1=O` (stereo not shown) [Example 10, 2-Chloro-N-((1,1-dioxidotetrahydrothiophen-3-yl)sulfonyl)-4-fluoro-5-(3-methyl-2,6-dioxo-4-(trifluoromethyl)-3,6-dihydropyrimidin-1(2H)-yl)benzamide]: the pest or weed control at 12.5 g/ha with Stellaria media (12.5 g/ha) was 0.1 to 50%; in the assay on Abutilon theophrasti (12.5 g/ha) it was 0.1 to 50%; in the assay with Echinochloa crus-galli (12.5 g/ha), 0.1 to 50%; in the assay with Amaranthus retroflexus (12.5 g/ha), 50 to 80%. The pest or weed control at 25 g/ha lay within 0.1 to 50% with Stellaria media (25 g/ha), 0.1 to 50% in the assay on Abutilon theophrasti, 0.1 to 50% with Echinochloa crus-galli (25 g/ha) and 50 to 80% in the assay on Amaranthus retroflexus (25 g/ha). Moreover, the pest or weed control at 50 g/ha was in the range of 0.1 to 50% with Stellaria media (50 g/ha), 0.1 to 50% in the assay on Abutilon theophrasti, 0.1 to 50% with Echinochloa crus-galli and 50 to 80% with Amaranthus retroflexus. For the same compound, the pest or weed control at 100 g/ha with Stellaria media lay in the range of 0.1 to 50%; in the assay with Abutilon theophrasti, 0.1 to 50%; in the assay with Echinochloa crus-galli it was 0.1 to 50%; in the assay with Amaranthus retroflexus it was 50 to 80%. For the same compound, the plant injury at 12.5 g/ha with maize (12.5 g/ha) fell in the range of 0.1 to 50%. In addition, the plant injury at 25 g/ha in the assay on maize (25 g/ha) fell in the range of 0.1 to 50%. Besides, the plant injury at 50 g/ha in the assay with maize fell in the range of 0.1 to 50%. The plant injury at 100 g/ha in the assay on maize was 0.1 to 50%.
`Cn1c(C(F)(F)F)cc(=O)n(-c2cc(C(=O)NS(=O)(=O)C3CC3)ccc2F)c1=O` [Example 15, N-(Cyclopropylsulfonyl)-4-fluoro-3-(3-methyl-2,6-dioxo-4-(trifluoromethyl)-3,6-dihydropyrimidin-1(2H)-yl)benzamide]: the “percentage increase in necrosis relative to the control” value in the assay on Stellaria media (12.5 g/ha), in the assay with Stellaria media (25 g/ha), in the assay with Stellaria media (50 g/ha), in the assay with maize (12.5 g/ha), in the assay on maize (25 g/ha) and in the assay with Abutilon theophrasti (12.5 g/ha) was “d” in each case. Moreover, the “percentage increase in necrosis relative to the control” value in the assay on Echinochloa crus-galli (12.5 g/ha), with Echinochloa crus-galli (25 g/ha), in the assay with Amaranthus retroflexus (12.5 g/ha) and in the assay with Amaranthus retroflexus (25 g/ha) was “d” each time. Besides, the pest or weed control at 100 g/ha in the assay on Stellaria media was 0.1 to 50%; in the assay on Abutilon theophrasti, 50 to 80%; in the assay with Echinochloa crus-galli, 0.1 to 50%; in the assay on Amaranthus retroflexus, 50 to 80%. In the assay with maize, the plant injury at 50 g/ha lay in the range of 0.1 to 50%. Moreover, the plant injury at 100 g/ha in the assay on maize lay within 0.1 to 50%. Moreover, the pest or weed control at 25 g/ha in the assay with Abutilon theophrasti lay in the range of 0.1 to 50%. The pest or weed control at 50 g/ha with Abutilon theophrasti was in the range of 50 to 80%; with Echinochloa crus-galli it was 0.1 to 50%; in the assay with Amaranthus retroflexus, 50 to 80%.
